Measured values taken from PMC12822377, “Investigating the role of cytochrome bd oxidases in the antibacterial activity of madecassic acid and derivatives thereof” (RSC Medicinal Chemistry, 2026).

Columns and labels:
[1] = tested on: E. coli EC958 cytochrome bd-I only cells; experiment: Growth assay against E. coli cytochrome bd-I only cells; assay type: cell-based, Escherichia coli; details: for IC50: Escherichia coli, read-out: IC50, growth inhibition, bd-I only E. coli cells, M9 minimal medium
Protocol: (§1) EC958 is a multidrug-resistant E. coli O25: H4-ST131 isolate.[16,17] Generation of the EC958 bd-I only strain (genotype ΔcyoA appCB::Cm) is described elsewhere.[13]
(§2) Starter cultures were grown in 10 mL LB (E. coli) in sterile 50 mL conical flasks at 180 rpm and 37 °C until stationary phase was reached and were used to inoculate 50 mL of fresh growth medium in 250 mL conical flasks. M9 minimal medium was used for E. coli (16 g L^−1 Na2HPO4·2H2O, 3 g L^−1 KH2PO4, 0.5 g L^−1 NaCl, 1 g L^−1 NH4Cl, 0.24 g L^−1 MgSO4, 0.01 g L^−1 CaCl2, 0.1% casamino acids and 2% glycerol). Drug stocks were prepared in DMSO so that their final concentrations were 40× higher than the working concentrations. Greiner F-bottom sterile 96-well plates were prepared by adding 100 μL of a 2× concentrated growth medium, 61.7 μL sterile milliQ H2O, 5 μL of the drug and 33.3 μL of cell culture (final OD600 of ∼0.1). Cells were grown in a FLUOstar Omega plate reader at double orbital pattern setting.

[2] = biological target: T1, cytochrome bd-I (Escherichia coli, UniProt P0ABJ9); experiment: Oxygen consumption assay with isolated E. coli EC958 cytochrome bd-I only membranes; assay type: biochemical
T1 construct: oxygen consumption activity of E. coli EC958 cytochrome bd-I-only membranes; endogenous in cells; host or cells: E. coli EC958 bd-I only strain (genotype ΔcyoA appCB::Cm), isolated membranes
Protocol: Membrane preparation and oxygen consumption were performed as described previously.[13] Briefly, cells were grown to exponential phase then harvested via centrifugation for 20 min at 4000 rpm and 4 °C. The cell pellet was resuspended in ice-cold sonication buffer (20 mM Tris/HCl at pH 7.4, 2 mM MgCl2, and 1 mM EGTA). The resuspended cells were sonicated (6 × 30s on ice at […]) before centrifugation at 44 000 rpm for 1 h and 4 °C to isolate membranes. The membrane pellet was resuspended in 20 mM Tris/HCl (pH 7.4) at a final concentration of 100 mg mL^−1 and stored at −20 °C. For oxygen measurements a Rank Brothers oxygen electrode with a 4 mL closed chamber was used at 37 °C, which contained 50 mM HEPES pH 7.4, 0.5 mg mL^−1 membranes (based on wet membranes) and DMSO-solubilised drug (added from 40× final concentration). A final concentration of 8 mM succinate (pH 7.4) was added (from 160 mM stock) to initiate the reaction with a single run lasting 15–20 min.

[3] = tested on: E. coli EC958 cytochrome bd-I only cells; experiment: microbe, parasite or virus in culture; assay type: cell-based, Escherichia coli
Protocol: as §1
(§3) Viability assays were performed essentially as described previously.[13] Briefly, E. coli was grown overnight in 10 mL LB medium and was used to inoculate M9 medium. 20 μL of each drug was added to the wells of row A of a 96 well plate followed by 180 μL of cells (OD600 of 0.1). Cells were exposed to drug for 3 hours at 37 °C. Following drug exposure, serial dilutions were performed in 1 × phosphate buffered saline (pH 7.4) before being spotted onto LB agar plates overnight to determine changes in cell survival. Six repeats were performed for each concentration of drug which included two biological repeats and three technical repeats of each.

[4] = tested on: wild type E. coli EC958 cells; experiment: Survival assay against wild type E. coli EC958 cells; assay type: cell-based, Escherichia coli; details: wild type EC958 strain
Protocol: as §3
(§4) Figure S1. Impact of madecassic acid upon E. coli growth and survival. (A) Growth assays of MA against wild type E. coli EC958 cells. Error bars represent standard deviations for at least 4 technical repeats, including two biological repeats. (B) Wild type E. coli EC958 cells were exposed to various concentrations of madecassic acid and bacterial survival was enumerated using serial dilution and viability plating. Error bars represent standard deviations for at least four technical repeats, including two […]
(§5) (1 picture or pasted object on this page, not shown here)

[5] = biological target: T2, succinate dehydrogenase (Escherichia coli, UniProt P07014+P0AC41+P0AC44+P69054); experiment: Succinate dehydrogenase assay in isolated E. coli membranes; assay type: biochemical; details: 1 mM
T2 construct: endogenous in cells; host or cells: E. coli membranes; the main text says EcoM4 pSU2718G-cydABX-his6, the supplement says EC958
Text: Investigating the role of cytochrome bd oxidases in the antibacterial activity of madecassic acid and derivatives thereof
Samantha A. Henry,a Geraud N. Sansom,a Thao Thi Phuong Tran,b Ryan A.
Boughton,a Guy Joiner,a Calum M. Webster,a H. Ireshika C. de Silva,c Michelle D.
Garrett,a Christopher J. Serpell,d Gary K. Robinson,a Mark Shepherd a a School of Natural Sciences, University of Kent, Canterbury, United Kingdom, CT2 7NH, UK b Institute of Chemistry, Vietnam Academy of Science and Technology, 18 Hoang Quoc Viet Road, Cau […]
c Department of Chemistry, University of Colombo, Colombo 03, Sri Lanka d School of Pharmacy, University College London, 29-39 Brunswick Square, London, WC1N 1AX, UK […]
Spectrakinetics were recorded on a Cary 60 spectrophotometer for 15 min and rates were calculated using the extinction coefficient A600 = 20.7 mM -1cm-1 (5) . […]
Isolated E. coli EC958 membranes were assayed for succinate dehydrogenase activity in the presence and absence of 1 mM madecassic acid (MA), and negative controls were recorded in the absence of membranes. […]

[6] = tested on: wild type E. coli EC958 cells; experiment: Growth assay against wild type E. coli EC958 cells; assay type: cell-based, Escherichia coli; details: wild type EC958 strain, aerobic conditions
Protocol: as §2, §4, §5

[7] = biological target: T1, cytochrome bd-I; experiment: Oxygen electrode cytochrome bd-I assay with duroquinol as the electron source (EcoM4 pSU2718G-cydABX-his6 membranes); assay type: biochemical; details: 1 mM, 400 µM duroquinol as electron donor
Protocol: Oxygen electrode cytochrome bd-I assays with duroquinol as the electron source Membranes from the E. coli EcoM4 pSU2718G-cydABX-his 6 strain were prepared as described previously(6). To specifically monitor cytochrome bd-I activity, duroquinol was used as a directly electron source. Duroquinol was prepared from duroquinone as previously described(7) and quantified using the extinction coefficient ΔA275(ox – red) = 16 mM-1cm-1 (8). Cytochrome bd-I activity was then monitored via oxygen consumption in a Rank Brothers oxygen electrode with a 2 mL closed chamber at 37 °C, which contained 50 mM HEPES pH 7.4, 0.5 mg/mL membranes (based on wet membranes) and DMSO-solubilised drug (added from 40x final concentration) or ‘DMSO only’ control. A final concentration of 400 µM duroquinol (in 50 mM KPi, 2mM EDTA pH 7.5) was added to initiate the reaction.
7. Rich P. Electron transfer reactions between quinols and quinones in aqueous and aprotic
8. Degli Esposti M, Lenaz G, Izzo G, Papa S. Kinetics and sidedness of ubiquinol-cytochrome c
Figure S3. […] Cytochrome bd-I activity was measured via monitoring oxygen consumption in an oxygen electrode in the presence and absence of 1 mM madecassic acid, and negative controls were recorded in the absence of membranes. […]

T1 sequence (P0ABK2 whole entry): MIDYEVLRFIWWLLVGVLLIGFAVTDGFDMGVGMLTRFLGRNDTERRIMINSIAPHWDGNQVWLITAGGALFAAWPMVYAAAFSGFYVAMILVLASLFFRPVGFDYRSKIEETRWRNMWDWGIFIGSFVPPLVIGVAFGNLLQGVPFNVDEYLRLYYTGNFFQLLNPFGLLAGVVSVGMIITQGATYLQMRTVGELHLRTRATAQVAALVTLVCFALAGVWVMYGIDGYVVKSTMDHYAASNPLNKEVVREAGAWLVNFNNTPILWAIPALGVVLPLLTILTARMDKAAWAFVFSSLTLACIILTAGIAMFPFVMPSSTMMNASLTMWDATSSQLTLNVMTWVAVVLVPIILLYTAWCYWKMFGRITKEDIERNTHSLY
T1 sequence (A5A618 whole entry, further chain): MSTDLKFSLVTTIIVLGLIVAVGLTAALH
T1 sequence (P0ABJ9 whole entry): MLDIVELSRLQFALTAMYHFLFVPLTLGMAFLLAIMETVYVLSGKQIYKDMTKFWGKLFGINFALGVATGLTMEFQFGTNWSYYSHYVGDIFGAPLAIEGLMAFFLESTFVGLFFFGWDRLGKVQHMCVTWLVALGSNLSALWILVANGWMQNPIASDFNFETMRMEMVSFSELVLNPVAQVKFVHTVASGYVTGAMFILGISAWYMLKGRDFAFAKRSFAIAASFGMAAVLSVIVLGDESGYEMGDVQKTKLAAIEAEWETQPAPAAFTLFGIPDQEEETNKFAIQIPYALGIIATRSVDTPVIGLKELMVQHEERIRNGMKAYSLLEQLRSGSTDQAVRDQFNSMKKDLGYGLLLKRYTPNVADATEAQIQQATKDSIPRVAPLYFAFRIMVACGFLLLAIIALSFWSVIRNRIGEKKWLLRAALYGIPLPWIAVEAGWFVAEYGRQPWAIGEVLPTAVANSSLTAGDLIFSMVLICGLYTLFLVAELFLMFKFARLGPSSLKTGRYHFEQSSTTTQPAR
T1 sequence (P56100 whole entry, further chain): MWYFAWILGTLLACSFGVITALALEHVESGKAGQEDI
T2 sequence (P0AC41 whole entry): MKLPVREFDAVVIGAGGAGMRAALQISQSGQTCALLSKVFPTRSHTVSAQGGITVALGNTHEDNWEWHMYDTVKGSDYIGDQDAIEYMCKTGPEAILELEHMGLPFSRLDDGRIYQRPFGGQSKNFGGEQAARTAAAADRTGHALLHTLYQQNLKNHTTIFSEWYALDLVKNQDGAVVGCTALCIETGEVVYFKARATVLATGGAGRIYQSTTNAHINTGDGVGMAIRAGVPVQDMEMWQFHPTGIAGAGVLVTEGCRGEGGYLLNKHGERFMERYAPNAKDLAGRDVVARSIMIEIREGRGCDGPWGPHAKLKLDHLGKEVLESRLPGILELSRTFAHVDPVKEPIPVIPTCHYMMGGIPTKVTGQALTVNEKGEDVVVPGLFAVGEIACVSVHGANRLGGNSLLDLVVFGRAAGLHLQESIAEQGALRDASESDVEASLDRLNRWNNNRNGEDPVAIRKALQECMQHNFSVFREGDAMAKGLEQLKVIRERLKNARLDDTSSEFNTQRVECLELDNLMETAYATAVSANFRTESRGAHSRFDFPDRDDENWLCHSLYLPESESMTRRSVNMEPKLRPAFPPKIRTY
T2 sequence (P69054 whole entry): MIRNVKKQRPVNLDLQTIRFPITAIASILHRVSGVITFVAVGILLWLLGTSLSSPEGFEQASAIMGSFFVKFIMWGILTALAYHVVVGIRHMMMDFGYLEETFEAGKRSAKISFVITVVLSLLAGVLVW
T2 sequence (P07014 whole entry): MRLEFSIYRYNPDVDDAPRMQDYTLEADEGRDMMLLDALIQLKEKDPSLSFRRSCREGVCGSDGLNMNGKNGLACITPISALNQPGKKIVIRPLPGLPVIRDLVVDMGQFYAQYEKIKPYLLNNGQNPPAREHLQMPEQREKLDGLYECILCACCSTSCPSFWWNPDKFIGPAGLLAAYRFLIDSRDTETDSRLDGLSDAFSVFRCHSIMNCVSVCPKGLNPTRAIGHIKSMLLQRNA
T2 sequence (P0AC44 whole entry): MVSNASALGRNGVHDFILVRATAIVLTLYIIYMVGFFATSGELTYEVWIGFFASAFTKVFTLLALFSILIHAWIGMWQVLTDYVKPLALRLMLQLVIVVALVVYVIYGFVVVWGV

| SMILES | IC50 [1] | IC50 [2] | LC50 ([3]; Escherichia coli, 3 h, read-out: LC50 (killing)) | susceptibility to killing (survival assay) [4] | inhibition of SDH activity [5] | IC50 ([6]; Escherichia coli, read-out: IC50, growth inhibition) | maximal inhibition of growth [6] | Max inhibition of growth ([1]; bd-I only E. coli cells) | effect on cytochrome bd-I activity (oxygen consumption) [7] | killing of cells (viability assay) ([3]; bd-I only E. coli cells, 3 hours exposure at 37 °C) |
| --- | --- | --- | --- | --- | --- | --- | --- | --- | --- | --- |
| CC1CCC2(C(=O)NCCCCCCCCCCN)CCC3(C)C(=CCC4C5(C)CC(O)C(O)C(C)(CO)C5C(O)CC43C)C2C1C (stereo not shown) [MA-4] | > 250 µM | 79 ± 44 µM | 304 ± 73 µM | – | – | – | – | – | – | – |
| CC(=O)OCC1(C)C(OC(C)=O)C(OC(C)=O)CC2(C)C1C(O)CC1(C)C2CC=C2C3C(C)C(C)CCC3(C(=O)NCCCCCCCCCCN)CCC21C (stereo not shown) [MA-3] | 16 ± 11 µM | 10 ± 1 µM | – | – | – | – | – | – | – | – |
| C[C@H]1[C@H](C)CC[C@]2(C(=O)O)CC[C@]3(C)C(=CC[C@@H]4[C@@]5(C)C[C@@H](O)[C@H](O)[C@@](C)(CO)[C@@H]5[C@H](O)C[C@]43C)[C@H]12 [MA, Madecassic acid] | 9.4 ± 1.5 µM | 34 ± 11 µM | – | not susceptible to MA-mediated killing at concentrations below 1 mM | did not inhibit SDH | ~10 µM | 48% | 63% | completely abolishes bd-I activity | did not kill |
| CC(=O)OCC1(C)C(OC(C)=O)C(OC(C)=O)CC2(C)C1C(O)CC1(C)C2CC=C2C3C(C)C(C)CCC3(C(=O)O)CCC21C (stereo not shown) [MA-2] | 116 ± 22 µM | 15 ± 5 µM | – | – | – | – | – | – | – | – |
